Laboratory results published in patent US8012949B2, “Bisphosphonate compounds and methods with enhanced potency for multiple targets including FPPS, GGPPS, and DPPS” (The Board of Trustees of the University of Illinois, priority 2004, dated 2011).
Where two headings read alike, the source gives them in different places.

Legend:
[1] = test system: MCF-7 (breast adenocarcinoma); assay: MCF-7 cell growth inhibition (MTT), incl. FOH/GGOH rescue; type: cell-based, human; settings: for MCF7 Cell pIC50: Table 3, determined in this work; for IC50: Homo sapiens
From the text: (§1) Cell Growth Inhibition Assays. […] A broth microdilution method was used to determine IC50 values for growth inhibition by each bisphosphonate. […] NBPs were typically initially dissolved in H2O (0.01 M) while NNBPs were typically dissolved in DMSO (0.01 M).
GraphPad PRISM® version 4.0 software for windows (GraphPad Software Inc., San Diego, Calif., www.graphpad.com) was used to fit the data to a rectangular hyperbolic function: I=(ImaxC)/(IC50+C);
For the “rescue” experiments, stock solutions of FOH or GGOH were prepared (in ethanol) and the requisite amounts added to the incubation media to produce a fixed 20 μM concentration.

Vγ2Vδ2 T cells = assay: γδ T cell activation (TNF-α release and proliferation); type: cell-based, human; settings: Table 2, -log10(value, M); for EC50: Homo sapiens, T-cell, read-out: γδ T Cell Avg pED50 (converted)
Procedure: γδ T Cell Assays. Vγ2Vδ2 T cell TNF-α release and proliferation were performed basically as described previously^1. Briefly, to measure bioactivity for Vγ2Vδ2 T cells, the CD4^+ JN.24, CD4^+ HF.2, CD8αα^+ 12G12, or the CD4^−8^− HD.108 Vγ2Vδ2 T cell clones were stimulated with phosphoantigens in the presence of CP.EBV (an EBV transformed B cell line) for CD4^+ clones or Va-2 (a transformed fibroblast) for CD8αα^+ and CD4^−8^− clones. CP.EBV and Va-2 were fixed with 0.05% glutaraldehyde (EM grade, Sigma, Mo.) for use as APCs. […] Curve fitting minima for each experiment (e.g. TNF-α release from JN.24 cells) were determined using the Global Fitting technique, as implemented in Prism 4.0. Curve fitting maxima were optimized for each individual compound without the use of any constraints.

human DPPS = target: T1, human DPPS (Homo sapiens, UniProt Q5T2R2); assay: human DPPS enzyme inhibition; type: biochemical; settings: Table 1, experimental
T1 construct: made in house
T1 sequence (Q5T2R2 1-415): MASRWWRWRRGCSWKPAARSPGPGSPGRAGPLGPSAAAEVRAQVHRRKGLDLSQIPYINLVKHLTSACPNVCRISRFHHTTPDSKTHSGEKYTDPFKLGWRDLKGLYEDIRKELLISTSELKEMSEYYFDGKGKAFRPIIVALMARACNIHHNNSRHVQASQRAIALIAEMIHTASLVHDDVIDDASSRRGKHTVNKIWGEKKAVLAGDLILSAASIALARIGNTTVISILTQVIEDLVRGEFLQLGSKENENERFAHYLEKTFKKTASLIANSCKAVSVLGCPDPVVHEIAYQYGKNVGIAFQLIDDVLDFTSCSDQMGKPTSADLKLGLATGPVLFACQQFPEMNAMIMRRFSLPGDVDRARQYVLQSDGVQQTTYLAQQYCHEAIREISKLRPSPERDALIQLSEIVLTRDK
T1 sequence (Q86YH6 1-399 partner): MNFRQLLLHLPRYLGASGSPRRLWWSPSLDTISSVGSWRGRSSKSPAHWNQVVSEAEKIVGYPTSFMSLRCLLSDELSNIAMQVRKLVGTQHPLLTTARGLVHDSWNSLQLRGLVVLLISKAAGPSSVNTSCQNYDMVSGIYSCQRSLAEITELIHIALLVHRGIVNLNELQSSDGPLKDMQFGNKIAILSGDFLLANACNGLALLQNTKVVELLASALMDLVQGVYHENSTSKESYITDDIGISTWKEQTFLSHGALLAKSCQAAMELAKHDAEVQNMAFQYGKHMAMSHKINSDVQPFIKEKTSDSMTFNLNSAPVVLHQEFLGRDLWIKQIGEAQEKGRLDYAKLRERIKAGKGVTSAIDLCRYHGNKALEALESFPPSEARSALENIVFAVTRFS
From the text: To test our polypharmaceutical hypothesis, we expressed three enzymes: human FPPS, GGPPS and DPPS, and tested each for their inhibition by a series of bisphosphonates.

[2] = test system: SF-268 (central nervous system glioblastoma); assay: SF-268 cell growth inhibition (MTT); type: cell-based, human; settings: Table 1, experimental
From the text: as §1
(§2) GraphPad PRISM® version 4.0 software for windows (GraphPad Software Inc., San Diego, Calif., www.graphpad.com) was used to fit the data to a rectangular hyperbolic function: I=(ImaxC)/(IC50+C); […]

[3] = test system: NCI-H460 (lung large cell); assay: NCI-H460 cell growth inhibition (MTT); type: cell-based, human; settings: Table 1, experimental
From the text: as §1, §2

[4] = MCF7, Table 1, experimental, read-out: MCF-7 pIC50 (converted)
[5] = MCF7, Table 2, -log10(value, M), read-out: MCF-7 Cell pIC50 (converted)

SMILES	MCF-7 Cell pIC50 (M) ([1]; Table 2, -log10(value, M))	γδ T Cell Avg pED50 (M) (Vγ2Vδ2 T cells)	MCF7 Cell pIC50 [1]	further results
CCCCCCCCCCCCc1ccc[n+](CC(P(=O)([O-])O)P(=O)(O)O)c1 (stereo not drawn) [BPH-677]	4.34	4.88	–	–
O=P([O-])(O)C(C[n+]1ccc(Cc2ccccc2)cc1)P(=O)(O)O (stereo not drawn) [BPH-481]	3.90	3.45	–	–
O=P(O)(O)C(Cc1cccnc1)P(=O)(O)O [BPH-290]	3.47	4.21	–	–
O=P(O)(O)C(NC1CCCCCC1)P(=O)(O)O [BPH-31, reference compound]	–	–	4.30	–
O=P(O)(O)C(N1CCCCC1)P(=O)(O)O [BPH-72, reference compound]	–	–	3.34	–
CCCCCCCC[S+](C)CC(P(=O)([O-])O)P(=O)(O)O (stereo not drawn) [BPH-683]	–	–	–	IC50 [1, 4]: 20 µM; IC50 [1, 5]: 6.76 µM; Ki (human DPPS; read-out: DPPS_pKi (converted)): 63.1 nM; EC50 (Vγ2Vδ2 T cells): 107 µM; IC50 ([2]; Homo sapiens, SF-268, read-out: SF-268 pIC50 (converted)): 12.6 µM; IC50 ([3]; Homo sapiens, NCI-H460, read-out: NCI-H460 pIC50 (converted)): 15.8 µM
CC(C)(C)C(=O)OCOP(=O)(O)C(C[n+]1cccc(F)c1)P(=O)([O-])O (stereo not drawn) [BPH-669]	4.75	4.49	–	–
O=P(O)(O)C(O)(Cn1ccnc1)P(=O)(O)O [BPH-91, reference compound]	–	–	4.81	MCF-7 pIC50 (M) ([1]; Table 1, experimental): 4.7 M; DPPS pKi (human DPPS): 7.4; SF-268 pIC50 (M) [2]: 4.8 M; NCI-H460 pIC50 (M) [3]: 4.8 M
NCCC(O)(P(=O)(O)O)P(=O)(O)O [BPH-5, reference compound]	–	–	3.85	MCF-7 pIC50 (M) ([1]; Table 1, experimental): 3.9 M; DPPS pKi (human DPPS): 6.3; SF-268 pIC50 (M) [2]: 3.5 M; NCI-H460 pIC50 (M) [3]: 4.0 M
NCCCC(O)(P(=O)(O)O)P(=O)(O)O [BPH-1, reference compound]	–	–	3.31	MCF-7 pIC50 (M) ([1]; Table 1, experimental): 3.3 M; DPPS pKi (human DPPS): 6.3; SF-268 pIC50 (M) [2]: 3.5 M; NCI-H460 pIC50 (M) [3]: 3.5 M
CCCCCCCCCCCCCCCCCC[S+](C)CC(P(=O)([O-])O)P(=O)(O)O (stereo not drawn) [BPH-696]	5.85	4.63	–	–
O=P([O-])(O)C(C[S+]1CCCC1)P(=O)(O)O (stereo not drawn) [BPH-682]	4.02	3.84	–	–
NCCC(O)(P(=O)(O)O)P(=O)(O)O [pamidronate, reference compound]	–	–	–	IC50 ([1]; MCF7, FIG. 2A, read-out: IC50, MCF-7 tumor cell growth inhibition): ~300 µM
O=P(O)(O)C(Cc1nccs1)P(=O)(O)O [BPH-58, reference compound]	–	–	3.48	–
C[S+](CCCc1ccccc1)CC(P(=O)([O-])O)P(=O)(O)O (stereo not drawn) [BPH-686]	4.24	3.81	–	–
CCCCCCCCCC[S+](C)CC(P(=O)([O-])O)P(=O)(O)O (stereo not drawn) [BPH-687]	6.20	5.09	–	–
O=P(O)(O)C(O)(Cc1cnc2ccccn12)P(=O)(O)O [BPH-261]	–	–	–	MCF-7 pIC50 (M) ([1]; Table 1, experimental): 4.8 M; DPPS pKi (human DPPS): 6.8; SF-268 pIC50 (M) [2]: 4.9 M; NCI-H460 pIC50 (M) [3]: 4.8 M
CCCCCCCCCCCCCCCC[S+](C)CC(P(=O)([O-])O)P(=O)(O)O (stereo not drawn) [BPH-695]	5.95	5.68	–	–
CCCCCN(C)CCC(O)(P(=O)(O)O)P(=O)(O)O [BPH-24, reference compound]	–	–	–	MCF-7 pIC50 (M) ([1]; Table 1, experimental): 3.7 M; DPPS pKi (human DPPS): 7.3; SF-268 pIC50 (M) [2]: 3.8 M; NCI-H460 pIC50 (M) [3]: 3.7 M
O=P(O)(O)C(N1CCCCCC1)P(=O)(O)O [BPH-57, reference compound]	–	–	3.60	–

SMILES	MCF-7 Cell pIC50 (M) ([1]; Table 2, -log10(value, M))	γδ T Cell Avg pED50 (M) (Vγ2Vδ2 T cells)	MCF7 Cell pIC50 [1]	further results
CCc1ccc[n+](CC(P(=O)([O-])O)P(=O)(O)O)c1 (stereo not drawn) [BPH-475]	4.37	3.94	–	–
CN(CCCCc1ccccc1)CCC(O)(P(=O)(O)O)P(=O)(O)O [BPH-210, reference compound]	–	–	4.08	–
CN(CCc1ccccc1)CCC(O)(P(=O)(O)O)P(=O)(O)O [BPH-208, reference compound]	–	–	4.38	–
O=P(O)(O)C(O)(C[n+]1cccc(F)c1)P(=O)(O)O [BPH-461, 3-fluoro-1-(2-hydroxy-2,2-bisphosphonoethyl)-pyridinium]	4.34	4.16	–	–
CCCCCCCCOc1ccc[n+](CC(P(=O)([O-])O)P(=O)(O)O)c1 (stereo not drawn) [BPH-714]	6.82	5.29	–	–
CCC[S+](C)CC(P(=O)([O-])O)P(=O)(O)O (stereo not drawn) [BPH-685]	4.02	3.81	–	MCF-7 pIC50 (M) ([1]; Table 1, experimental): 3.6 M; DPPS pKi (human DPPS): 6.7; SF-268 pIC50 (M) [2]: 3.7 M; NCI-H460 pIC50 (M) [3]: 3.9 M
O=P([O-])(O)C(C[n+]1cccc(F)c1)P(=O)(O)O (stereo not drawn) [BPH-477]	4.77	3.80	–	–
O=P([O-])(O)C(C[n+]1cccc(Cc2ccccc2)c1)P(=O)(O)O (stereo not drawn) [BPH-480]	3.42	3.33	–	–
CN(CCOc1ccccc1)CCC(O)(P(=O)(O)O)P(=O)(O)O [BPH-219, reference compound]	–	–	4.93	–
CN(CCCc1ccccc1)CCC(O)(P(=O)(O)O)P(=O)(O)O [BPH-209, reference compound]	–	–	4.01	–
CC(C)(C)C(=O)OCOP(=O)(O)C(O)(C[n+]1cccc(F)c1)P(=O)([O-])O (stereo not drawn) [BPH-670]	4.64	4.16	–	–
CCCCCCCCCCCC[S+](C)CC(P(=O)([O-])O)P(=O)(O)O (stereo not drawn) [BPH-688]	–	–	–	IC50 [1, 4]: 6.31 µM; IC50 [1, 5]: 0.501 µM; EC50 (Vγ2Vδ2 T cells): 5.62 µM
O=P([O-])(O)C(C[n+]1ccccc1)P(=O)(O)O (stereo not drawn) [BPH-470]	4.14	4.12	–	–
O=P(O)(O)C(O)(Cc1c[nH]cn1)P(=O)(O)O [BPH-18, reference compound]	–	–	5.41	–
CCCCCCOc1ccc[n+](CC(P(=O)([O-])O)P(=O)(O)O)c1 (stereo not drawn) [BPH-723]	5.76	4.44	–	–
CCCN(C)CC(P(=O)(O)O)P(=O)(O)O [BPH-693]	5.32	5.28	–	–
CCCCOc1ccc[n+](CC(P(=O)([O-])O)P(=O)(O)O)c1 (stereo not drawn) [BPH-721]	4.70	4.10	–	–
CC(C)(C)C(=O)OCOP(=O)(O)C(C[n+]1ccccc1)P(=O)([O-])O (stereo not drawn) [BPH-656]	4.88	4.29	–	–
CCCCc1ccc[n+](CC(P(=O)([O-])O)P(=O)(O)O)c1 (stereo not drawn) [BPH-476]	4.58	4.00	–	–
O=P(O)(O)C(O)(Cc1cccnc1)P(=O)(O)O [BPH-2]	3.13	4.29	–	MCF-7 pIC50 (M) ([1]; Table 1, experimental): 3.8 M; DPPS pKi (human DPPS): 7.3; SF-268 pIC50 (M) [2]: 3.9 M; NCI-H460 pIC50 (M) [3]: 3.7 M
